Laboratory results taken from EP2451450B1, “Inhibitors of proline racemase enzymes for the treatment of Trypanosoma spp infections” (Institut Pasteur, priority 2009, dated 2011).
Like-named read-outs stand apart in the source and are kept apart here.

Legend:
[1] = target: T1, TcPRAC (Trypanosoma cruzi, UniProt Q4DA80); assay: L-proline racemization assay, formed D-proline determined by DAAOx test; assay type: biochemical
T1 construct: implied only by nickel IMAC purification; made in house; host or cells: E. coli BL21 (DE3)
T1 sequence (Q4DA80 32-423): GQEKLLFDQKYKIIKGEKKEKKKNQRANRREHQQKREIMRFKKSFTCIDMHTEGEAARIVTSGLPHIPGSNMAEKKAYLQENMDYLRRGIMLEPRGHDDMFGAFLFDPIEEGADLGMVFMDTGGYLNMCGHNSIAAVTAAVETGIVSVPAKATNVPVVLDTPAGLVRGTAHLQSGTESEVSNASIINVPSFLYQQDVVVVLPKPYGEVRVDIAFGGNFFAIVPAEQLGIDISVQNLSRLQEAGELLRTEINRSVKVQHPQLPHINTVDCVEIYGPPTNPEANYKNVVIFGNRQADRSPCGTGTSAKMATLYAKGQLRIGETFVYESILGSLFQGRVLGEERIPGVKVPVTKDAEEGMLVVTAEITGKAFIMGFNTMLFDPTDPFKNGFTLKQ
Protocol: (§1) Briefly, classical assays of Proline racemization induced by TcPRAC were performed in tubes in a final volume of 1.5 ml and optical rotations measured in a polarimeter 241MC (Perkin Elmer). Parallel assays of Proline racemization were transposed into microplates in a final volume of 100 µl, as follows: serial dilutions of L- Proline ranging from 40 mM to 2.5 mM were prepared in 0.2 M sodium acetate pH 6.0 containing 0.25 mM rTcPRAC and loaded into microplate wells in the presence or in the absence of 0 - 20 µM pyrrole-2 carboxylic acid (PYC) or of similar dilutions of unknown potential inhibitors. Specific control wells were included omitting the TcPRAC and/or the PYC.
Microplates were incubated for 30 minutes at 37° C. Enzyme activity was then inactivated by heating the plate for 15 seconds in a microwave oven at 900 watts after shifting the pH of wells to 8.3 by addition of 6.8 µl of 0.235 M sodium Pyrophosphate. 50 µl of each well were used to test the presence of D-Proline using the DAAOx (D-amino acid oxidase) test described below. L- amino acids may react at very low rate with DAAOx. For instance, DAAOx reacts with L-Proline 300 times slower than D-Proline. Consequently, when assessing amino acid racemization products, standards should consist of serial dilution of equimolar mixtures of specific D- and L-amino acids ranging from 0 to 20 mM (10 mM final) to take into account any interference of possible reactivity with DAAOx of the L- form of amino acids present in the samples.
Solution A consisting of 0.2 M sodium acetate/0.016 M sodium pyrophosphate (Pop) buffer, pH 8.3 was used to prepare the enzyme stock solutions conserved in 50% glycerol, namely: 50 U/ml D-amino acid oxidase from pig kidney (DAAOx, Sigma) and 5000 U/ml Horse Raddish Peroxydase (HRP, Sigma). Stock solutions of L- proline (1M), D- proline (1M) and Pyrrole-2-carboxylic acid (10 mM) (PYC, Sigma) are also prepared in solution A. 10^-1 M FAD (Sigma) stock was prepared in water. Solution B consists in adding to solution A the following reagents at a final concentration in the assay of 1 U/ml for DAAOx, 0.5 mg/ml orthophenylenediamine (OPD, Sigma), 37.5 U/ml HRP and FAD (1.5x10^-5 M FAD). The test is run in 96 wells micro plates (Nunc, Denmark). […] OD 490nm - 650nm is obtained with a microtiter plate reader (Molecular Devices), and compared to those obtained with blank control wells.
The values presented in Table 2A correspond to racemization reactions performed in the absence or in the presence of 10 µM concentration of the different ligands. […] Briefly, 22.4 mg/ml of active TcPRAC was used in the racemization assays of 10 mM L-proline substrate and the concentration of formed D-proline was determined by the DAAOx test, as described in the Material and Methods. […]

[2] = target: T1, TcPRAC; assay: L-proline racemization assay by polarimetry; assay type: biochemical; details: ligand 10.0 µM; L-Proline 20 mM, 30 minutes 37°C, 0.25 µM TcPRAC
Protocol: as §1
The values presented in Table 2B correspond to racemization reactions performed in the absence or in the presence of the different inhibitors. Note that 6 µM PYC is necessary to inhibit 100 % of the racemization of 10-20 mM L-proline. Briefly, L-Proline (20 mM) were incubated for 30 minutes at 37°C in test tubes with or without 0.25 µM TcPRAC in 0.2 M sodium acetate pH 6. Reactions were stopped by heating at 65° C for 10 minutes. Reaction volumes were analyzed for D-Proline formation, by measuring optical rotations in a polarimeter (365nm).

[3] = tested on: T. cruzi; assay: Capture ELISA of Vero cultures infected 17h with or without inhibitor; assay type: cell-based, Trypanosoma cruzi; details: 17h at 37°C, 10:1 parasite/cell ratio; 0-30 mM OxoPA, Br-OxoPA or 10-1000 µM PYC in DMSO; Fig. 9
Protocol: Flat-bottomed microtiter plates (Nunc, Denmark) were coated overnight at 4°C with rabbit anti-T. cruzi polyclonal antibodies and further blocked for 4 h at room temperature (RT) with 1% BSA, 0.05% Tween 20 in PBS. After washings, lysate samples from infected or control Vero cultures, or from T. cruzi, were then added and incubated at 4°C for 18h. Plates were washed with PBS-Tween and incubated for 2h at RT with polyclonal mouse anti-T. cruzi chronic serum, washed again and incubated for 1 h at RT with HRP-secondary antibodies. […] Optical densities were determined in a spectrophotometer at 450 nm and 650 nm and analyzed using Softmax Pro software.
To confirm the effect of the inhibitors in the initial steps of the host-parasite interaction, cultures were infected for 17h at 37°C at a 10:1 parasite/cell ratio with or without increasing doses of freshly prepared dilutions (0-30 mM) of OxoPA, Br-OxoPA (15), or (10-1000 µM) of PYC, previously dissolved in DMSO and further analyzed by capture ELISA (see methods and Fig. 9). […] Three ongoing studies were performed to determine whether TcPRAC inhibition by the new compounds affects parasite intracellular fate. To do this, host cells were infected for 17 hours then washed and different ligand concentrations (5 mM, 10 mM, 30, 100 mM) were added to the medium. The degree of infection was determined over 48 hours by capture ELISA. The number of parasites per well decreased in a dose-dependent manner (Fig. 7). These experiments indicate that TcPRAC inhibition by OxoPA and Br-OxoPA affects both cellular infection by T. cruzi and parasite development in tissues.

[4] = tested on: T.cruzi CL Brener (clone F11-F5); details: cited from earlier work; for Mean number of parasites/ cell / % Infected cells / Endocytic index: from previous work; for Endocytic index (EI): Table 5, same PYC data as Table 3A
[5] = target: recombinant TvPRAC; details: 5 µM PYC, 20-160 mM L-proline; Chamond et al 2009; cited from earlier work
[6] = target: T1, TcPRAC; details: cited from earlier work
[7] = target: CsPRAC; details: value given for comparison; cited from earlier work
[8] = target: T1, TcPRAC; assay type: biochemical; details: in words; for inhibition of TcPRAC activity: Table 1
Protocol: Optimum Proline racemization conditions for TcPRAC were determined using 10-20 mM L-Proline in 0.2 M NaOAc, as a function of pH, as described [24].
Briefly, classical assays of Proline racemization induced by TcPRAC were performed in tubes in a final volume of 1.5 ml and optical rotations measured in a polarimeter 241MC (Perkin Elmer). […] Specific control wells were included omitting the TcPRAC and/or the PYC.
Microplates were incubated for 30 minutes at 37° C. Enzyme activity was then inactivated by heating the plate for 15 seconds in a microwave oven at 900 watts after shifting the pH of wells to 8.3 by addition of 6.8 µl of 0.235 M sodium Pyrophosphate. 50 µl of each well were used to test the presence of D-Proline using the DAAOx (D-amino acid oxidase) test described below [25]. L- amino acids may react at very low rate with DAAOx. For instance, DAAOx reacts with L-Proline 300 times slower than D-Proline. Consequently, when assessing amino acid racemization products, standards should consist of serial dilution of equimolar mixtures of specific D- and L-amino acids ranging from 0 to 20 mM (10 mM final) to take into account any interference of possible reactivity with DAAOx of the L- form of amino acids present in the samples.
Solution A consisting of 0.2 M sodium acetate/0.016 M sodium pyrophosphate (Pop) buffer, pH 8.3 was used to prepare the enzyme stock solutions conserved in 50% glycerol, namely: 50 U/ml D-amino acid oxidase from pig kidney (DAAOx, Sigma) and 5000 U/ml Horse Raddish Peroxydase (HRP, Sigma). Stock solutions of L- proline (1M), D- proline (1M) and Pyrrole-2-carboxylic acid (10 mM) (PYC, Sigma) are also prepared in solution A. 10^-1 M FAD (Sigma) stock was prepared in water. Solution B consists in adding to solution A the following reagents at a final concentration in the assay of 1 U/ml for DAAOx, 0.5 mg/ml orthophenylenediamine (OPD, Sigma), 37.5 U/ml HRP and FAD (1.5x10^-5 M FAD). […] OD 490nm - 650nm is obtained with a microtiter plate reader (Molecular Devices), and compared to those obtained with blank control wells. […]

With O=C(O)c1ccc[nH]1 [PYC, pyrrole-2-carboxylic acid] the IC50 [1] was ~10 µM, the “Formed D-Proline” value ([1]; ligand 10 µM, 10 mM L-proline, 22.4 mg/ml TcPRAC, 5.0mM without ligand) was 2.4 mM (IC50) and the “Racemization Inhibition” value [2] was 56.9%. For the same molecule, the “inhibition of cellular infection” value [3] was “no particular differences were observed”, the “Mean number of parasites/ cell” value ([4]; 10 µM, 2 at 0) was 1,7 and the “% Infected cells” value ([4]; 10 µM, 90,0 at 0) was 75,0%. The Endocytic index ([4]; 10 µM) was 44, the “% Infected cells” value ([4]; 100 µM) was 45,0% and the Endocytic index ([4]; 100 µM) was 30. For the same molecule, the “Mean number of parasites/ cell” value ([4]; 100 µM) was 1,5, the “% Infected cells” value ([4]; 1000 µM) was 25,0% and the Endocytic index ([4]; 1000 µM) was 25. The “Mean number of parasites/ cell” value ([4]; 1000 µM) was 1,0, the “Endocytic index (EI)” value ([4]; Inhibitor concentration 10) was 44 and the “Endocytic index (EI)” value ([4]; Inhibitor concentration 100) was 30. The “Endocytic index (EI)” value ([4]; Inhibitor concentration 1000) was 25, the Ki [5] was 20 µM and the “PYC necessary to inhibit 100 % of the racemization of 10-20 mM L-proline” value ([6]; reference [15]) was 6 µM. The “affinity for the TcPRAC catalytic pocket” value ([6]; reference [15]) was 6 µM, the Ki ([6]; value given for comparison) was 6.7 µM and the Ki [7] was 18 µM.
With O=C(O)c1n[nH]cc1Cl [Pyrazole 4-chloro 5-carboxylic, 4-chloro-1H-pyrazole-3-carboxylic acid] the “inhibition of TcPRAC activity” value [8] was “weak inhibitions”.
In the case of O=C(O)c1n[nH]cc1Br [Pyrazole 4-bromo 5-carboxylic, 4-bromo-1H-pyrazole-3-carboxylic acid], the “inhibition of TcPRAC activity” value [8] is reported as “weak inhibitions”.
In the case of O=C(O)c1cc[nH]n1 [Pyrazole 5-carboxylic, 1H-pyrazole-3-carboxylic acid], the “activity with PRAC (Figure 1 compounds)” value [8] is reported as “very weakly active”.
